Laboratory results from the OPERA property sets (Mansouri et al. 2018).

Conditions: not given

Row | Structure (SMILES) | boiling point [°C] | log10 Koc (L/kg) | log10 vapour pressure (mmHg) | melting point [°C] | ready biodegradability | log10 Henry constant (atm·m³/mol) | log10 Koa | log10 biodegradation half-life (days)
1 | Oc1cccc(Cl)c1Cl | 206 | 2.66 | -1.24 | 58 | not readily biodegradable |  |  | 
2 | CC(=O)OCC(=O)[C@@]1(O)CC[C@H]2[C@@H]3CCC4=CC(=O)CC[C@]4(C)[C@H]3C(=O)C[C@@]21C |  |  |  | 222 |  |  |  | 
3 | CCCN=C=O | 83.5 |  |  |  |  |  |  | 
4 | O=C(O)c1ccccc1C(=O)c1ccccc1 | 261 |  |  | 127 |  |  |  | 
5 | C#Cc1ccc(C)cc1 | 169 |  |  |  |  |  |  | 
6 | Clc1ccc(Cl)c(-c2ccccc2)c1 |  |  | -2.86 |  |  | -3.55 |  | 
7 | CC(C)c1ccccc1-c1ccccc1 |  |  | -3.3 |  |  |  |  | 
8 | CC1=CC=C(C(C)C)CC1 | 175 |  |  |  |  |  |  | 
9 | N#CCC(=O)c1ccc(N)cc1 |  |  |  | 159 |  |  |  | 
10 | CN(C)c1ccc(Cc2ccc(N(C)C)cc2)cc1 | 390 | 3.96 |  | 91.5 | not readily biodegradable |  |  | 
11 | O=C(NCC1CCCCN1)c1cc(OCC(F)(F)F)ccc1OCC(F)(F)F (stereo unspecified) |  |  |  | 146 |  |  |  | 
12 | CC(=O)c1cc2ccccc2o1 |  |  |  | 76 |  |  |  | 
13 | OCc1ccc2c(c1)OCO2 |  |  |  | 58 |  |  |  | 
14 | CC1CCCNC1=O (stereo unspecified) | 250 |  |  | 55.3 |  |  |  | 
15 | CNC(=O)Oc1cccc(C(C)C)c1 |  |  |  | 73 |  |  |  | 
16 | Cc1ccc2ccc3ccc(C)cc3c2c1 |  |  |  | 145 |  |  |  | 
17 | CC(=O)c1ccc(C)nc1 |  |  |  | 17.6 |  |  |  | 
18 | C=C(C)[C@H]1Cc2c(cc(O)c3c2O[C@@H]2COc4cc(OC)c(OC)cc4[C@@H]2C3=O)O1 |  |  |  | 195 |  |  |  | 
19 | C1C2C3C2C2C1C32 (stereo unspecified) | 112 |  |  |  |  |  |  | 
20 | Cc1ccc(N=c2sccn2C)c(C)c1 |  |  | -4.74 | 44 |  |  |  | 
21 | COc1ccc(C(=O)Cl)cc1 | 262 |  |  | 24.5 |  |  |  | 
22 | Cc1ccccc1CC#N | 244 |  |  |  |  |  |  | 
23 | CCOP(=O)(SC(C)CC)SC(C)CC (stereo unspecified) |  |  | -3.05 |  |  |  |  | 

Row | Structure (SMILES) | boiling point [°C] | log10 Koc (L/kg) | log10 vapour pressure (mmHg) | melting point [°C] | ready biodegradability | log10 Henry constant (atm·m³/mol) | log10 Koa | log10 biodegradation half-life (days)
24 | OC1CCCCC1 | 161 |  | -0.0969 | 25.4 | readily biodegradable | -5.36 | 5.18 | 
25 | O=C(O)CCCCC[N+](=O)[O-] |  |  |  |  | readily biodegradable |  |  | 
26 | BrCCCCCCBr | 246 |  |  | -2.3 |  |  |  | 
27 | N#Cc1cccc(Cl)c1 |  |  |  | 41 |  |  |  | 
28 | Cc1cc(C)cc(C(=O)O)c1 |  |  |  | 171 |  |  |  | 
29 | CC1=C(C)C(=O)C=CC1=O |  |  |  | 55 |  |  |  | 
30 | O=C1C=CC(=O)c2ccccc21 |  |  |  | 128 | not readily biodegradable |  |  | 
31 | N#C/C=C/c1ccccc1 | 264 |  |  | 22 |  |  |  | 
32 | CCOCC | 34.6 |  | 2.73 | -116 | not readily biodegradable | -2.91 | 2.19 | 
33 | O=[N+]([O-])c1ccc2[nH]ccc2c1 |  |  |  | 141 |  |  |  | 
34 | CCC(C)(O)CCl (stereo unspecified) | 151 |  |  |  |  |  |  | 
35 | C=CC(C)=CC | 77 |  |  |  |  |  |  | 
36 | C=Cc1ccc(C)cc1 | 173 |  | 0.258 | -34.1 |  |  |  | 
37 | CCCCNc1ccccc1 | 244 |  |  | -14.4 |  |  |  | 
38 | C=CC(F)(F)C(F)(F)C(F)(F)C(F)(F)C(F)(F)C(F)(F)C(F)(F)C(F)(F)F | 150 |  |  |  |  |  |  | 
39 | CC(=O)Oc1ccccc1C(=O)OC(=O)c1ccccc1OC(C)=O |  |  |  | 83 |  |  |  | 
40 | Oc1c(F)c(F)c(C(F)(F)F)c(F)c1F | 164 |  |  |  |  |  |  | 
41 | CC(C)[C@H](C)CC[C@@H](C)[C@H]1CC[C@H]2[C@@H]3CC=C4C[C@@H](O)CC[C@]4(C)[C@H]3CC[C@]12C |  |  |  | 158 |  |  |  | 
42 | CCN(CC)c1ccc(Cl)cc1 | 252 |  |  | 45.5 |  |  |  | 
43 | O=C1C2CC=CCC2C(=O)N1SC(Cl)(Cl)Cl (stereo unspecified) |  | 2.3 | -7.05 | 178 | not readily biodegradable |  |  | 
44 | NCCOP(=O)(O)O |  |  |  | 242 |  |  |  | 
45 | CC(C)(C)c1ccc(O)c(C(C)(C)C)c1 | 264 |  | -2.32 | 56.5 | not readily biodegradable |  |  | 
46 | CCCCCCC(Br)CBr (stereo unspecified) | 241 |  |  |  |  |  |  | 

Row | Structure (SMILES) | boiling point [°C] | log10 Koc (L/kg) | log10 vapour pressure (mmHg) | melting point [°C] | ready biodegradability | log10 Henry constant (atm·m³/mol) | log10 Koa | log10 biodegradation half-life (days)
47 | CC(=O)Nc1ccc(C)c(NS(=O)(=O)C(F)(F)F)c1 |  |  |  | 176 |  |  |  | 
48 | CC(C)(C)NCC(O)c1ccc(O)c(CO)c1 (stereo unspecified) |  |  |  | 151 |  |  |  | 
49 | CC(=O)C(C)=O | 88 |  | 1.75 | -1.2 |  | -4.88 |  | 
50 | Cc1ccnc2ccccc12 | 262 |  | -2.2 | 9.5 |  |  |  | 
51 | COP(=S)(OC)Oc1ccc(C#N)cc1 |  |  | -3.1 | 14.5 | not readily biodegradable |  |  | 
52 | CC(CO)CC(F)(F)F (stereo unspecified) | 132 |  |  |  |  |  |  | 
53 | Cc1ccc(O)c(I)c1 |  |  |  | 35 |  |  |  | 
54 | CCCc1ccc(O)cc1O |  |  |  | 82.5 |  |  |  | 
55 | C1=CCC=C1 | 41 |  | 2.64 | -85 |  |  |  | 
56 | CCc1ccc(C(C)C)cc1 | 197 |  |  |  |  |  |  | 
57 | COP(=O)(OC)OC=C(Cl)Cl | 234 | 1.67 | -1.8 | -60 | readily biodegradable |  |  | 
58 | CC(N)c1ccccc1 (stereo unspecified) | 185 |  |  |  |  |  |  | 
59 | Cc1cc2nc[nH]c2cc1C |  |  |  | 206 |  |  |  | 
60 | CCNC(=O)C1CC(C)CCC1C(C)C (stereo unspecified) |  |  |  | 88 |  |  |  | 
61 | O=C1CSC2(CCN(CCCN3c4ccccc4Sc4ccc(Cl)cc43)CC2)N1 |  |  |  | 155 |  |  |  | 
62 | Nc1cc(Cl)c(S(N)(=O)=O)cc1S(N)(=O)=O |  |  |  | 254 |  |  |  | 
63 | CC(C)c1ccccc1 | 152 |  | 0.653 | -96 | readily biodegradable | -1.94 | 3.98 | 1.18
64 | O=C(O)Cn1c(=O)sc2cccc(Cl)c21 |  | 1.52 | -9.12 | 193 |  |  |  | 
65 | CN(C)C(=O)CCCOC(=O)c1ccccc1 |  |  |  | 40.5 |  |  |  | 
66 | Nc1ccc([N+](=O)[O-])cn1 |  |  |  | 187 |  |  |  | 
67 | c1ccc(-c2cccnc2)cc1 | 272 |  |  | 164 |  |  |  | 
68 | C=CC[Si](C)(C)Cl | 111 |  |  |  |  |  |  | 
69 | CCOc1ccc(NC(=O)CN)cc1 |  |  |  | 100 |  |  |  | 

Row | Structure (SMILES) | boiling point [°C] | log10 Koc (L/kg) | log10 vapour pressure (mmHg) | melting point [°C] | ready biodegradability | log10 Henry constant (atm·m³/mol) | log10 Koa | log10 biodegradation half-life (days)
70 | FC(F)C(F)(F)F | -48.5 |  | 4.02 | -103 |  |  |  | 
71 | NNc1c(Cl)cc(Cl)cc1Cl |  |  |  |  | not readily biodegradable |  |  | 
72 | Cc1cc(C)nc(NC(=O)NS(=O)(=O)c2ccccc2C(=O)O)n1 |  | 1.8 |  |  |  |  |  | 
73 | c1ccc(C(=C(c2ccccc2)c2ccccc2)c2ccccc2)cc1 | 420 |  |  | 225 |  |  |  | 
74 | CCCCCCCCCCCC[N+](C)(C)Cc1ccccc1 |  |  |  |  | not readily biodegradable |  |  | 
75 | Cc1ccc(CC(=O)O)cc1 | 265 |  |  | 93 |  |  |  | 
76 | COc1cc(O)c(C(=O)c2ccccc2)c(O)c1 |  |  |  | 130 |  |  |  | 
77 | C[C@H](O)CC[C@H](C)O | 218 |  |  | 43 |  |  |  | 
78 | C#C[C@]1(OC(C)=O)CC[C@H]2[C@@H]3CCC4=CC(=O)CC[C@@H]4[C@H]3CC[C@@]21C |  |  |  | 162 |  |  |  | 
79 | c1ccc2c(c1)-c1cccc3cccc-2c13 | 384 | 4.8 | -5.04 |  | not readily biodegradable | -5.05 | 8.88 | 2.17
80 | C=Cc1ccc(CCl)cc1 |  |  |  |  | not readily biodegradable |  |  | 
81 | COc1ccc2c(c1)[nH]c1c(C)nccc12 |  |  |  | 273 |  |  |  | 
82 | Cc1c(C(C)OC(=O)CCC(=O)O)oc2ccc(C3=CC(=O)OC3)cc12 (stereo unspecified) |  |  |  | 144 |  |  |  | 
83 | Cc1ccc(CCO)cc1 | 244 |  |  |  |  |  |  | 
84 | C=CC(=O)OCCCCCC |  |  |  | -45 | readily biodegradable |  |  | 
85 | COC(=O)CCCC(=O)OC | 214 |  | -0.745 | -42.5 | readily biodegradable |  |  | 
86 | CCCCCS(=O)(=O)O |  |  |  | 15.9 |  |  |  | 
87 | O=C(OCCOc1ccc(Cl)cc1Cl)c1ccccc1 |  |  |  | 66 |  |  |  | 
88 | CC(=O)Nc1nnc(S(N)(=O)=O)s1 |  |  |  | 260 |  |  |  | 
89 | O=C(O)c1c[nH]c2ccccc12 |  |  |  | 206 |  |  |  | 
90 | C#CCCC#C | 86 |  |  | -6 |  |  |  | 

Same assay, conditions: fish

Row | Structure (SMILES) | log10 BCF | log10 biotransformation half-life (days)
91 | Oc1cccc(Cl)c1Cl | 1.13 | 
92 | Clc1ccc(Cl)c(-c2ccccc2)c1 | 3.98 | 2.38
93 | CN(C)c1ccc(Cc2ccc(N(C)C)cc2)cc1 |  | -0.04
94 | CCOCC | 0.73 | -0.7
95 | C=Cc1ccc(C)cc1 | 1.5 | 
96 | O=C1C2CC=CCC2C(=O)N1SC(Cl)(Cl)Cl (stereo unspecified) | 1.98 | 
97 | CC(C)(C)c1ccc(O)c(C(C)(C)C)c1 | 2.4 | -0.37
98 | COP(=S)(OC)Oc1ccc(C#N)cc1 | 1.56 | 0.23
99 | COP(=O)(OC)OC=C(Cl)Cl | -0.3 | 
100 | CC(N)c1ccccc1 (stereo unspecified) | 0.82 | 
101 | CC(C)c1ccccc1 | 1.55 | 
102 | c1ccc2c(c1)-c1cccc3cccc-2c13 | 3.56 | -0.02
103 | ClC1C(Cl)C(Cl)C(Cl)C(Cl)C1Cl (stereo unspecified) |  | 1.49
